Key:
Experiment in all cases: Cell line panel 1 viability screen
Type in all cases: cell-based
647-V = 647-V (urinary_tract)
Protocol: (§1) To support clinical development and identify potential biomarkers of tumor sensitivity or resistance, two large cancer cell line panels (Panel 1, N=653 (McDermott et al. (2007) PNAS 104:19936-19941); Panel 2, N=240 (O'Day et al. (2010) Fourth AACR International Conference on Molecular Diagnostics in Cancer Therapeutic Development)) were treated with MLN4924 and cell viability data (IC50, EC50, and POC—Percentage of Control) were generated.
(§2) Panel 1 (McDermott et al., supra). The cell lines were exposed to three MLN4924 concentrations (20 nM, 200 nM, and 2 μM) for 72 hours. Viability, i.e., cell number, was quantified by measuring fluorescence of a cell-permeant nucleic acid stain. Mean of triplicate values for each sample were taken and compared to DMSO control to calculate percentage of control. In the results, control or no activity value is given a value of about 1, sensitivity is indicated by a value less than 1, with 0 as death of the entire cell population and resistance indicated by a value greater than 1. A continuum of viability values was obtained for each concentration, so some values were selected as cut-offs for final determination of sensitivity or resistance. For example, median POC values of less than the median value of all POC's recorded in the panel (<0.34) indicated sensitivity, values of 0.34 to 0.75 indicated borderline sensitivity, values greater than the 3rd quartile of all POC's in the panel (>0.75) insensitivity or resistance. […] Final judgment of cell line as sensitive, insensitive or resistant was determined by its viability at 2 μM.

8505C = 8505C (thyroid)
Protocol: as §1, §2

C-33a = C-33a (Cervix)
Protocol: as §1, §2

COLO-205 = system: COLO-205
Protocol: as §1, §2

HuCCT1 = HuCCT1 (Liver)
Protocol: as §1, §2

KYSE-180 = KYSE-180 (oesophagus)
Protocol: as §1, §2

KYSE-450 = KYSE-450 (oesophagus)
Protocol: as §1, §2

LK-2 = details: Homo sapiens; LK-2 (lung); 2 μM MLN4924, 72 hours; DMSO control about 1
Protocol: as §1, §2

LS-174T = LS-174T (large_intestine)
Protocol: as §1, §2

MDA-MB-468 = MDA-MB-468 (breast)
Protocol: as §1, §2

MKN45 = MKN45 (stomach)
Protocol: as §1, §2

NCI-H2405 = NCI-H2405 (lung)
Protocol: as §1, §2

NCI-N87 = NCI-N87 (stomach)
Protocol: as §1, §2

NCl-H1581 = NCl-H1581 (lung NSCLC); 2 μM MLN4924, 72 hours; DMSO control about 1
Protocol: as §1, §2

PANC-03-27 = PANC-03-27 (pancreas)
Protocol: as §1, §2

PANC-08-13 = PANC-08-13 (pancreas)
Protocol: as §1, §2

RCM-1 = system: RCM-1
Protocol: as §1, §2

SK-OV-3 = details: Homo sapiens; SK-OV-3 (ovary); 2 μM MLN4924, 72 hours; DMSO control about 1
Protocol: as §1, §2

SN12C = SN12C (kidney)
Protocol: as §1, §2

SW 1116 = details: Homo sapiens; SW 1116 (intestine); 2 μM MLN4924, 72 hours; DMSO control about 1
Protocol: as §1, §2

T84 = details: Homo sapiens; T84 (intestine); 2 μM MLN4924, 72 hours; DMSO control about 1
Protocol: as §1, §2

YAPC = YAPC (pancreas)
Protocol: as §1, §2

[1] = Homo sapiens, 2 μM MLN4924, 72 hours, DMSO control about 1

For `NS(=O)(=O)OC[C@@H]1C[C@@H](n2ccc3c(N[C@H]4CCc5ccccc54)ncnc32)C[C@@H]1O` [MLN4924, ((1S,2S,4R)-4-{4-[(1S)-2,3-dihydro-1H-inden-1-ylamino]-7H-pyrrolo[2,3-d]pyrimidin-7-yl}-2-hydroxycyclopentyl)methyl sulphamate], the Phenotype (647-V; NF2 mutant) was “sensitive (median POC values of less than the median value of all POC's recorded in the panel (<0.34) indicated sensitivity)”, the viability at 2 µM (647-V; [1]) was 3.8% and the Phenotype (8505C; NF2 mutant) was “sensitive (median POC values of less than the median value of all POC's recorded in the panel (<0.34) indicated sensitivity)”. For the same compound, the viability at 2 µM (8505C; [1]) was 14.1%, the Phenotype (C-33a; FBXW7 mutant) was “sensitive (median POC values of less than the median value of all POC's recorded in the panel (<0.34) indicated sensitivity)” and the viability at 2 µM (C-33a; [1]) was 8.22%. For the same compound, the Phenotype (COLO-205; COLO-205 (large_intestine), SMAD4 mutant) was “sensitive (median POC values of less than the median value of all POC's recorded in the panel (<0.34) indicated sensitivity)”, the viability at 2 µM (COLO-205; Homo sapiens, COLO-205 (intestine), 2 μM MLN4924, 72 hours, DMSO control about 1) was 14.4% and the viability at 2 µM (HuCCT1; Homo sapiens, HuCCT-1, 2 μM MLN4924, 72 hours, DMSO control about 1) was 12.6%. For the same compound, the Phenotype (HuCCT1; FBXW7 mutant) was “sensitive (median POC values of less than the median value of all POC's recorded in the panel (<0.34) indicated sensitivity)”, the viability at 2 µM (KYSE-180; [1]) was 21.5% and the Phenotype (KYSE-180; KDM6A mutant) was “sensitive (median POC values of less than the median value of all POC's recorded in the panel (<0.34) indicated sensitivity)”. For the same compound, the viability at 2 µM (KYSE-450; [1]) was 14.3%, the Phenotype (KYSE-450; KDM6A mutant) was “sensitive (median POC values of less than the median value of all POC's recorded in the panel (<0.34) indicated sensitivity)” and the viability at 2 µM (LK-2) was 28.9%. For the same compound, the viability at 2 µM (LS-174T; Homo sapiens, LS174T, 2 μM MLN4924, 72 hours, DMSO control about 1) was 32.6%, the Phenotype (LS-174T; KDM6A mutant) was “sensitive (median POC values of less than the median value of all POC's recorded in the panel (<0.34) indicated sensitivity)” and the viability at 2 µM (MDA-MB-468; [1]) was 29.6%. The Phenotype (MDA-MB-468; SMAD4 mutant) was “sensitive (median POC values of less than the median value of all POC's recorded in the panel (<0.34) indicated sensitivity)”, the viability at 2 µM (MKN45; Homo sapiens, MKN-45, 2 μM MLN4924, 72 hours, DMSO control about 1) was 36.1% and the Phenotype (MKN45; SMAD4 mutant) was “insensitive (values of 0.34 to 0.75 indicated borderline sensitivity)”. The viability at 2 µM (NCI-H2405; [1]) was 25.5%, the Phenotype (NCI-H2405; SMAD4 mutant) was “sensitive (median POC values of less than the median value of all POC's recorded in the panel (<0.34) indicated sensitivity)” and the viability at 2 µM (NCI-N87; [1]) was 14.6%. For the same compound, the Phenotype (NCI-N87; SMAD4 mutant) was “sensitive (median POC values of less than the median value of all POC's recorded in the panel (<0.34) indicated sensitivity)”, the viability at 2 µM (NCl-H1581) was 73.7% and the viability at 2 µM (PANC-03-27; [1]) was 7.24%. For the same compound, the Phenotype (PANC-03-27; SMAD4 mutant) was “sensitive (median POC values of less than the median value of all POC's recorded in the panel (<0.34) indicated sensitivity)”, the viability at 2 µM (PANC-08-13; [1]) was 77.7% and the Phenotype (PANC-08-13; SMAD4 mutant) was “resistant (values greater than the 3rd quartile of all POC's in the panel (>0.75) insensitivity or resistance)”. For the same compound, the viability at 2 µM (RCM-1; Homo sapiens, RCM-1 (intestine), 2 μM MLN4924, 72 hours, DMSO control about 1) was 76.7%, the Phenotype (RCM-1; RCM-1 (Intestine), FBXW7 mutant) was “resistant (values greater than the 3rd quartile of all POC's in the panel (>0.75) insensitivity or resistance)” and the viability at 2 µM (SK-OV-3) was 39.7%. The viability at 2 µM (SN12C; [1]) was 33.6%, the Phenotype (SN12C; NF2 mutant) was “sensitive (median POC values of less than the median value of all POC's recorded in the panel (<0.34) indicated sensitivity)” and the viability at 2 µM (SW 1116) was 116%. The viability at 2 µM (T84) was 57.8%, the viability at 2 µM (YAPC; [1]) was 18.7% and the Phenotype (YAPC; SMAD4 mutant) was “sensitive (median POC values of less than the median value of all POC's recorded in the panel (<0.34) indicated sensitivity)”.

— US20150119410A1, “BIOMARKERS OF RESPONSE TO NAE INHIBITORS” (MILLENNIUM PHARMACEUTICALS, INC., priority 2011, published 2015)
